Data as given in US12377112B2, “Methods of treating neurocognitive disorders, chronic pain and reducing inflammation” (priority 2019, dated 2025).
Marks after values point to notes of the source that are not given here.

What was measured:
[1] = system: Wistar-Kyoto (WKY) rats; experiment: Sleep-wake amounts (EEG/EMG) in Wistar-Kyoto rats; format: in vivo, rat; conditions: 5 mg/kg and 10 mg/kg s.c.
Description: Since WKY rats show decreased sensitivity to conventional monoamine-based antidepressant treatment, they are used as a model of TRD.
Male (WKY) rats (200-250 g) were implanted with electroencephalography (EEG) and electromyography (EMG) electrodes and telemetry transmitters under general anaesthesia (2-5% isoflurane in Oxygen). A telemetry transmitter (HD-502, Data Sciences International) was placed in the peritoneal cavity, and the wires of the transmitter were passed through the muscle wall and then sub-dermally to the scalp to act as EEG/EMG electrodes. Two bore holes were made in the skull (Fronto-parietal coordinates; Bregma +2 mm anterior, midline +1.0 mm lateral and Lambda 0 mm, +1.5 mm lateral). The positive EEG electrode was attached to the anterior bore hole and the negative EEG electrode to the posterior bore hole. Both electrodes were secured in place using a suitable adhesive agent (Cyanoacrylate gel, RS components). […]
Animals were maintained on a 12/12 hour light dark cycle. On study days, the animals were placed in recording boxes and EEG/EMG, locomotor activity, as well as body temperature were recorded for 0.5 h before and 24 h after each dosing. […]
The subsequent EEG/EMG recordings were automatically scored as wake, non-REM (NREM) sleep, or REM sleep in 10 second epochs using SleepSign (Kissei Comtec, Japan). […]

[2] = system: rat embryo mesencephalic cells, 6-OHDA; experiment: 6-OHDA damage on mesencephalic neuronal cultures (TH positive neurons); format: cell-based; conditions: 1 μM, 3 μM and 10 μM, one hour prior to 15 μM 6-OHDA
Experimental: The neuroprotective effect of psilocin against 6-OHDA-mediated injury on mesencephalic neuronal cultures was investigated.
A primary culture of rat embryo mesencephalic cells was plated on a 96-well plate. The cells were maintained at 37° C. in 5% CO2. Half of the medium was changed on day 2.
On day 6, the culture medium was removed and replaced by media containing psilocin (0.03 μM, 0.1 μM, 0.3 μM, 1 μM, 3 μM, or 10 μM), a negative control (saline vehicle, labelled control in FIG. 10), or a positive control (brain-derived neurotrophic factor (BDNF) and glial cell-derived neurotrophic factor (GDNF))). After one hour, 15 μM 6-OHDA was added for 48 hours.
On day 8, immunodetection was used to determine the number of tyrosine hydroxylase positive neurons.
Neuronal viability was assessed 48 hours after 6-OHDA intoxication and measured by the number of TH (tyrosine hydroxylase) positive neurons. The compound 6-OHDA kills specifically dopaminergic neurons, mimicking the cellular pathophysiology of Parkinson's disease. […] The result for each well was expressed as a percentage by setting the density of tyrosine hydroxylase positive cells under control conditions to 100%. The result for each condition was reported as mean (±S.E.M.) from 4 independent cultures.

[3] = system: human iPSC-derived neurons; experiment: Neurite outgrowth in human iPSC-derived neurons; format: cell-based
Experimental: The neurotrophic effect of psilocin was tested on human iPSC-derived neuronal cultures. Two parameters were evaluated: the average number of neurites per neuron, and the average total neurite length per neuron. Briefly, neurons establish physical connections between them in order to create neuronal networks.
Cryopreserved iCell neurons were thawed and plated according to Cellular Dynamics International instructions. The pharmacological treatments were carried out 2 hours after the cell plating. The cells were maintained in a humidified incubator at 37° C. in 5% CO2-95% air atmosphere.
Stock solutions of psilocin were prepared in 100% DMSO at 1000 times the final concentration in the culture media (1000× concentration).
For each culture, each condition was performed in sextuplet.
Each plate contained two types of other experimental conditions: the control condition treated with vehicle and the culture treated with Brain-derived neutrophic factor (BDNF).
Plate 1 and 2: Cells were treated with psilocin at 3 different concentrations: 0.03 μM, 0.1 μM, 0.3 μM. The stock solution was prepared fresh in 100% DMSO at 10 mM. BDNF was used in parallel.
Ten days after plating, cultures were fixed with paraformaldehyde in PBS (phosphate buffered saline) (4%, Sigma). Then, cells were successively permeabilized, saturated with PBS (containing 3% of BSA) and incubated for 1 h with anti-beta III tubulin antibody (Sigma) at 1/10 000 in PBS containing 0.5% of BSA (bovine serum albumin). Cells were first washed and were then incubated 1 h with goat anti-mouse antibody coupled with AF488 (Invitrogen A11001) diluted at 1/1000 in PBS containing 0.5% of BSA. Finally, nuclei are stained with DAPI 1 mg/ml at 1/1000 in PBS containing 0.5% of BSA. After rinsing them with PBS, the plate was filmed and neurite networks were examined and analyzed using High-Content Screening (CellInsight, Thermo Scientific).
The evaluation of neurite outgrowth was performed using the average number of neurites per neuron and the average of total neurite length per neuron, using Sholl method (Bird & Cuntz, 2019). (See FIG. 59A, FIG. 59B, FIG. 60A, FIG. 60B).

[4] = system: rat primary hippocampal culture, Aβ 1-40 intoxication; experiment: Fibrillated amyloid-β damage on cultures of hippocampal neurons (MTT viability); format: cell-based
Description: Amyloid-β toxicity is a hallmark of Alzheimer's disease, and is also frequently seen in multiple sclerosis lesions. In this study, the neuroprotective effect of psilocin on amyloid-β-induced neuronal death in rat primary hippocampal culture was investigated.
Female Wistar rats of 19 days gestation were killed by cervical dislocation and foetuses were removed from the uterus. Their brains were placed in ice-cold medium of Leibovitz (L15, Gibco, Fisher bioblock, France). Hippocampi were carefully removed, and the hippocampal neurons were dissociated by trypsinization for 30 min at 37° C. (trypsin-EDTA, Gibco) in presence of 0.1 mg/ml DNAse I (Roche, France). […] Viable cells were counted in a Neubauer cytometer using the trypan blue exclusion test (Sigma). […]
Psilocin was added to cells 10 minutes or 48 hours before amyloid-β intoxication. Neuronal viability was assessed 48 hours after amyloid-β intoxication. […]
Two days after Aβ exposure (day 11), cell viability was assessed by a measurement of cell metabolic activity using the CellTiter96® non-radioactive kit (MTT, Promega, Charbonnières, France). […] Solubilization solution was added and visible wavelength absorbance data was collected 4 hours later using a 96-well plate reader at 570 nm and 630 nm for non-specific background (Multiskan EX, Thermo Fisher).

[5] = system: male C57BL/6 mice; experiment: Chronic constriction injury (CCI) model of neuropathic pain, von Frey paw withdrawal threshold; format: in vivo, mouse
Experimental: To determine whether psilocybin may alleviate chronic neuropathic pain, various doses of psilocybin were tested in a mouse model of chronic constriction injury (CCI).
Male C57BL/6 mice (age 6-7 weeks, source: Charles River UK) were housed in standard caging in groups of 2-4, with free access to food (5CR4, Purina) and water (except during placement in the test box) on a 12/12 light/dark cycle.
All animals underwent behavioral testing of mechanical allodynia on three consecutive days (Day −2, Day−1 and Day 0) prior to surgery in order to determine the baseline withdrawal thresholds. Briefly, Static mechanical (tactile) allodynia was assessed by measurement of withdrawal threshold using calibrated (force; g) von-Frey monofilaments (Touch-Test Sensory Evaluator; Scientific Marketing Associates) applied to the plantar surface of the hind-paw. The animals were placed in individual Perspex boxes on a raised metal mesh for 30-40 minutes before the test. A series of graduated von Frey hairs (0.07, 0.16, 0.4, 0.6 and 1 g) was applied in sequence with a protocol of 1 second on 1 second off, repeated 10 times. Each hair was applied perpendicularly to the center of the ventral surface of the paw until it slightly bends. The force applied to the hind-paw of the animal to induce 5 responses out of 10 trials was recorded as paw withdrawal threshold (PWT). Three baseline paw withdrawal thresholds were taken on ipsilateral paws. The mean of the last two readings used as the baseline withdrawal threshold.
Subsequently, surgery was performed under anesthesia (Isoflurane mixed with oxygen, 3:1, 2 L/min) to tie three loose ligatures of prolene (7-0, Ethicon) around the sciatic nerve, with 1 mm spacing between each. The nerve was then returned below the muscle layer and the wound closed using absorbable sutures (Vicryl).
Following recovery from surgery, Von Frey assessment of mechanical allodynia was taken on days 19 and 22. Animals were then ranked and randomized (based on a Latin square design) to treatment groups according to the percentage change (compared to pre-surgery baseline) of the mean mechanical withdrawal threshold observed on days 19 and 22. Only those animals showing a PWT percentage change of >50% from pre-surgery baseline were included in the study.
On day 23, the animals were dosed with psilocybin (1, 3 or 10 mg/kg by intraperitoneal injection) or vehicle (10 mL/kg by intraperitoneal injection). Nerve pain medication Pregabalin (15 mg/kg administered orally) was also used as a positive control. Allodynia was then assessed at 0.5, 4 and 24 hours post-treatment timepoint (PTT).

CNC1(c2ccccc2Cl)CCCCC1=O (centres unmarked) [ketamine]
Amount of REM sleep [1]: decreased the amount of REM sleep in a dose-dependent manner

CN(C)CCc1c[nH]c2cccc(O)c12 [psilocin]
Neuronal viability (TH positive neurons) after 6-OHDA [2]: increased neuronal viability
Average lengths of neurites ([3]; 0.03 μM, treated at Day 0): significant increases
Average length of neurites ([3]; 0.03 μM, treated at Day 3): increase
Number of neurites per neurons ([3]; 0.03 μM, treated at Day 3): increase
Length of neurites ([3]; 0.1 μM): increased
Neuronal viability after amyloid-β ([4]; 10 μM, applied 10 minutes prior to amyloid-β): increased neuronal viability
Neuronal viability after amyloid-β ([4]; 0.3, 1, 3 and 10 μM, applied 48 hours prior to amyloid-β): increased neuronal viability

CC(C)C[C@H](CN)CC(=O)O [pregabalin, reference compound]
Force-induced paw withdrawal, mean ([5]; 15 mg/kg PO group, D19-22 Neuropathic baseline (before dosing)): 0.13 g
Force-induced paw withdrawal, mean ([5]; 15 mg/kg PO group, D-2 D-1 Baseline (before surgery and dosing)): 0.67 g
Force-induced paw withdrawal, mean ([5]; 15 mg/kg PO, D23 0.5 hours PTT): 0.19 g
Force-induced paw withdrawal, mean ([5]; 15 mg/kg PO, D23 4 hours PTT): 0.46* g
Force-induced paw withdrawal, mean ([5]; 15 mg/kg PO, D24 24 hours PTT): 0.16 g
Paw withdrawal threshold vs neuropathic baseline ([5]; 15 mg/kg orally, 4 hours): significant increase
